{
  "source": "paper PMC10850145",
  "about": "“Hormonal steroids induce multidrug resistance and stress response genes in Neisseria gonorrhoeae by binding to MtrR” (Nature Communications, 2024)",
  "test_system": "FA19-rpoH-lacZ",
  "assay": "Gonococcal growth in liquid culture (GC broth) with hormones (Fig S7)",
  "note": "Values joined by “and” are separate entries in the source; they are usually repeats but may differ in a detail not shown here. Equal values may be shown once.",
  "data": [
    {"smiles": "C[C@]12CC[C@@H]3c4ccc(O)cc4CC[C@H]3[C@@H]1CC[C@@H]2O", "note": "[β-Estradiol, β-estradiol]", "values": [
      {"measurement": "growth curve reading after BLANKING", "setting": "0 hr, 0.1 µM", "result": 0.013},
      {"measurement": "growth curve reading, raw replicates", "setting": "0 hr, 0.1 µM", "result": 0.046},
      {"measurement": "growth curve reading after BLANKING", "setting": "0 hr, 1 µM", "result": 0.013},
      {"measurement": "growth curve reading, raw replicates", "setting": "0 hr, 1 µM", "result": 0.046},
      {"measurement": "growth curve reading after BLANKING", "setting": "0 hr, 10 µM", "result": 0.013},
      {"measurement": "growth curve reading, raw replicates", "setting": "0 hr, 10 µM", "result": 0.046},
      {"measurement": "growth curve reading after BLANKING", "setting": "0 hr, 25 µM", "result": 0.013},
      {"measurement": "growth curve reading, raw replicates", "setting": "0 hr, 25 µM", "result": 0.046},
      {"measurement": "growth curve reading after BLANKING", "setting": "0 hr, 50 µM", "result": 0.013},
      {"measurement": "growth curve reading, raw replicates", "setting": "0 hr, 50 µM", "result": 0.046},
      {"measurement": "growth curve reading after BLANKING", "setting": "1.18 hr, 0.1 µM", "result": 0.020},
      {"measurement": "growth curve reading, raw replicates", "setting": "1.18 hr, 0.1 µM", "result": "0.052 and 0.053"},
      {"measurement": "growth curve reading after BLANKING", "setting": "1.18 hr, 1 µM", "result": 0.020},
      {"measurement": "growth curve reading, raw replicates", "setting": "1.18 hr, 1 µM", "result": "0.054 and 0.052"},
      {"measurement": "growth curve reading after BLANKING", "setting": "1.18 hr, 10 µM", "result": 0.020},
      {"measurement": "growth curve reading, raw replicates", "setting": "1.18 hr, 10 µM", "result": "0.053 and 0.054"},
      {"measurement": "growth curve reading after BLANKING", "setting": "1.18 hr, 25 µM", "result": 0.021},
      {"measurement": "growth curve reading, raw replicates", "setting": "1.18 hr, 25 µM", "result": "0.053 and 0.056"},
      {"measurement": "growth curve reading after BLANKING", "setting": "1.18 hr, 50 µM", "result": 0.019},
      {"measurement": "growth curve reading, raw replicates", "setting": "1.18 hr, 50 µM", "result": "0.052 and 0.053"},
      {"measurement": "growth curve reading after BLANKING", "setting": "2 hr, 0.1 µM", "result": 0.030},
      {"measurement": "growth curve reading, raw replicates", "setting": "2 hr, 0.1 µM", "result": "0.062 and 0.065"},
      {"measurement": "growth curve reading after BLANKING", "setting": "2 hr, 1 µM", "result": 0.030},
      {"measurement": "growth curve reading, raw replicates", "setting": "2 hr, 1 µM", "result": 0.063},
      {"measurement": "growth curve reading after BLANKING", "setting": "2 hr, 10 µM", "result": 0.031},
      {"measurement": "growth curve reading, raw replicates", "setting": "2 hr, 10 µM", "result": "0.063 and 0.065"},
      {"measurement": "growth curve reading after BLANKING", "setting": "2 hr, 25 µM", "result": 0.030},
      {"measurement": "growth curve reading, raw replicates", "setting": "2 hr, 25 µM", "result": "0.062 and 0.064"},
      {"measurement": "growth curve reading after BLANKING", "setting": "2 hr, 50 µM", "result": 0.030},
      {"measurement": "growth curve reading, raw replicates", "setting": "2 hr, 50 µM", "result": 0.063},
      {"measurement": "growth curve reading after BLANKING", "setting": "3 hr, 0.1 µM", "result": 0.041},
      {"measurement": "growth curve reading, raw replicates", "setting": "3 hr, 0.1 µM", "result": "0.076 and 0.072"},
      {"measurement": "growth curve reading after BLANKING", "setting": "3 hr, 1 µM", "result": 0.041},
      {"measurement": "growth curve reading, raw replicates", "setting": "3 hr, 1 µM", "result": "0.074 and 0.073"},
      {"measurement": "growth curve reading after BLANKING", "setting": "3 hr, 10 µM", "result": 0.043},
      {"measurement": "growth curve reading, raw replicates", "setting": "3 hr, 10 µM", "result": "0.079 and 0.074"},
      {"measurement": "growth curve reading after BLANKING", "setting": "3 hr, 25 µM", "result": 0.044},
      {"measurement": "growth curve reading, raw replicates", "setting": "3 hr, 25 µM", "result": "0.078 and 0.075"},
      {"measurement": "growth curve reading after BLANKING", "setting": "3 hr, 50 µM", "result": 0.040},
      {"measurement": "growth curve reading, raw replicates", "setting": "3 hr, 50 µM", "result": "0.074 and 0.072"},
      {"measurement": "growth curve reading after BLANKING", "setting": "4 hr, 0.1 µM", "result": 0.055},
      {"measurement": "growth curve reading, raw replicates", "setting": "4 hr, 0.1 µM", "result": "0.087 and 0.090"},
      {"measurement": "growth curve reading after BLANKING", "setting": "4 hr, 1 µM", "result": 0.056},
      {"measurement": "growth curve reading, raw replicates", "setting": "4 hr, 1 µM", "result": "0.089 and 0.088"},
      {"measurement": "growth curve reading after BLANKING", "setting": "4 hr, 10 µM", "result": 0.057},
      {"measurement": "growth curve reading, raw replicates", "setting": "4 hr, 10 µM", "result": "0.088 and 0.092"},
      {"measurement": "growth curve reading after BLANKING", "setting": "4 hr, 25 µM", "result": 0.060},
      {"measurement": "growth curve reading, raw replicates", "setting": "4 hr, 25 µM", "result": 0.093},
      {"measurement": "growth curve reading after BLANKING", "setting": "4 hr, 50 µM", "result": 0.052},
      {"measurement": "growth curve reading, raw replicates", "setting": "4 hr, 50 µM", "result": "0.082 and 0.088"},
      {"measurement": "growth curve reading after BLANKING", "setting": "5 hr, 0.1 µM", "result": 0.072},
      {"measurement": "growth curve reading, raw replicates", "setting": "5 hr, 0.1 µM", "result": "0.104 and 0.106"},
      {"measurement": "growth curve reading after BLANKING", "setting": "5 hr, 1 µM", "result": 0.072},
      {"measurement": "growth curve reading, raw replicates", "setting": "5 hr, 1 µM", "result": 0.105},
      {"measurement": "growth curve reading after BLANKING", "setting": "5 hr, 10 µM", "result": 0.071},
      {"measurement": "growth curve reading, raw replicates", "setting": "5 hr, 10 µM", "result": "0.103 and 0.105"},
      {"measurement": "growth curve reading after BLANKING", "setting": "5 hr, 25 µM", "result": 0.076},
      {"measurement": "growth curve reading, raw replicates", "setting": "5 hr, 25 µM", "result": "0.113 and 0.106"},
      {"measurement": "growth curve reading after BLANKING", "setting": "5 hr, 50 µM", "result": 0.065},
      {"measurement": "growth curve reading, raw replicates", "setting": "5 hr, 50 µM", "result": "0.094 and 0.103"},
      {"measurement": "growth curve reading after BLANKING", "setting": "5.95 hr, 0.1 µM", "result": 0.090},
      {"measurement": "growth curve reading, raw replicates", "setting": "5.95 hr, 0.1 µM", "result": "0.124 and 0.123"},
      {"measurement": "growth curve reading after BLANKING", "setting": "5.95 hr, 1 µM", "result": 0.093},
      {"measurement": "growth curve reading, raw replicates", "setting": "5.95 hr, 1 µM", "result": "0.126 and 0.125"},
      {"measurement": "growth curve reading after BLANKING", "setting": "5.95 hr, 10 µM", "result": 0.086},
      {"measurement": "growth curve reading, raw replicates", "setting": "5.95 hr, 10 µM", "result": "0.118 and 0.119"},
      {"measurement": "growth curve reading, raw replicates", "setting": "5.95 hr, 25 µM", "result": "0.134 and 0.124"},
      {"measurement": "growth curve reading after BLANKING", "setting": "5.95 hr, 50 µM", "result": 0.083},
      {"measurement": "growth curve reading, raw replicates", "setting": "5.95 hr, 50 µM", "result": "0.110 and 0.122"},
      {"measurement": "growth curve reading, raw replicates", "setting": "6.82 hr, 0.1 µM", "result": "0.137 and 0.133"},
      {"measurement": "growth curve reading, raw replicates", "setting": "6.82 hr, 1 µM", "result": "0.143 and 0.139"},
      {"measurement": "growth curve reading after BLANKING", "setting": "6.82 hr, 10 µM", "result": 0.092},
      {"measurement": "growth curve reading, raw replicates", "setting": "6.82 hr, 10 µM", "result": "0.127 and 0.123"},
      {"measurement": "growth curve reading after BLANKING", "setting": "6.82 hr, 25 µM", "result": 0.114},
      {"measurement": "growth curve reading, raw replicates", "setting": "6.82 hr, 25 µM", "result": "0.156 and 0.139"},
      {"measurement": "growth curve reading, raw replicates", "setting": "6.82 hr, 50 µM", "result": "0.124 and 0.136"}
    ]}
  ]
}
